Here are results for three molecules from patent US20240175039A1, “ENGINEERING PROBIOTIC FOR DEGRADING URIC ACID, AND CONSTRUCTION METHOD THEREFOR AND USE THEREOF” (SHANDONG UNIVERSITY, priority 2022, published 2024).

The target in data set [1] is T1, Bacillus subtilis PucL^MM (PucL variant PucL^M, Asp-214 to Val and Gln-438 to Arg (D44V and Q268R in PucL^T), SEQ ID NO: 1, co-expressed with PucM, SEQ ID NO: 2 (Bacillus subtilis, UniProt O32141, D214V/Q438R)).
T1 sequence (O32141 1-494 D214V/Q438R): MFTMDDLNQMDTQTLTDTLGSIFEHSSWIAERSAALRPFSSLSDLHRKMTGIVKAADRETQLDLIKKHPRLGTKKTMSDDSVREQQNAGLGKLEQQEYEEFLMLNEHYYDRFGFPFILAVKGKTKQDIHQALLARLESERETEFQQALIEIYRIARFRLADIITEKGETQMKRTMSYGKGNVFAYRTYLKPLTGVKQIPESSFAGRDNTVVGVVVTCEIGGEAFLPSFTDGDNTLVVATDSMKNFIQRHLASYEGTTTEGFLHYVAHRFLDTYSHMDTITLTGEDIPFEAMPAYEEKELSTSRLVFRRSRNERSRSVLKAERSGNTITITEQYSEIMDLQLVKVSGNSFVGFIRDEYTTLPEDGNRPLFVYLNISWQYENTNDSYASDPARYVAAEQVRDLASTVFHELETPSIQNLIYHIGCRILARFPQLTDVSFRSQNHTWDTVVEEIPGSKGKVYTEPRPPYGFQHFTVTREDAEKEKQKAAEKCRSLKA
T1 sequence (O32142 1-114 partner): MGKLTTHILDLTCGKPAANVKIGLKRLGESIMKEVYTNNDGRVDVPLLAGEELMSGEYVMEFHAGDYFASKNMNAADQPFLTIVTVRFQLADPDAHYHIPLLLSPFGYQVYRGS
Briefly: UA degradation kinetics (Km, Vmax), cell extract of EcN::pMCS2-Ptrc-pucL^MM. The following applies: cell extracts. The format is biochemical. From the text:
(§1) The urate oxidase gene is specifically PucL^M and PucM, whose nucleotide sequences are shown as SEQ ID NO: 1 and SEQ ID NO: 2, respectively; they act together, and in the present invention, they are named PucL^MM.
(§2) The pucL (Gene ID: 936669) and pucM (Gene ID: 937977) genes from Bacillus subtilis were codon-optimized and synthesized by Beijing Genomics Institute (BGI, Beijing). Asp-214 and Gln-438 of PucL were mutated to Val and Arg, respectively. The mutated pucL was named as pucL^M, and pucL^M was codon-optimized and synthesized by Beijing Genomics Institute (BGI, Beijing). The vhb gene (Protein ID: WP_019959060.1) from Vitreoscilla sp. C1 was codon-optimized and synthesized by Beijing Genomics Institute (BGI, Beijing). The ygfU (Gene ID: 949017) and the katG (Gene ID: 948431) genes were PCR amplified from E. coli MG1655 genomic DNA.
(§3) (1) UA was measured in a buffer solution using a spectrophotometer by directly measuring the absorbance at 293 nm. […] Subsequently, appropriate dilutions were performed for measurement, and UA concentration was determined.
(§4) The activity of PucL^T can be enhanced by the D44V and Q268R mutations. […] Determined by using cell extracts, the Vmax of PucL^MM increased by approximately 1.8 times compared to PucLM. […]

Data set [2] deals with Bacillus subtilis PucLM (complete PucL co-expressed with PucM, wild type; PucM SEQ ID NO: 2). Briefly: UA degradation kinetics (Km, Vmax), cell extract of EcN::pMCS2-Ptrc-pucLM. Format: biochemical.
Text: as §2
(§5) (1) UA was measured in a buffer solution using a spectrophotometer by directly measuring the absorbance at 293 nm. Firstly, UA standard solutions of 0, 10 μM, 15 μM, 20 μM, 30 μM, 40 μM, 50 μM, 60 μM, and 70 μM were prepared to plot an UA concentration standard curve, obtaining a curve R2 of 0.9997. Subsequently, appropriate dilutions were performed for measurement, and UA concentration was determined.
The activity of PucL^T can be enhanced by the D44V and Q268R mutations. We directly mutated two sites in the complete PucL (PucLM) and co-expressed them with PucM in EcN (EcN::pMCS2-Ptrc-pucL^MM). Determined by using cell extracts, the Vmax of PucL^MM increased by approximately 1.8 times compared to PucLM. […] Due to the increase in Km, the UA degradation ability of the whole cell of EcN::pMCS2-Ptrc-pucL^MM was weakened when the concentration of UA was low (FIG. 2C).

Substrate in data set [3]: O=c1[nH]c(=O)c2[nH]c(=O)[nH]c2[nH]1
Briefly: UA degradation kinetics (Km, Vmax), cell extract of EcN::pMCS2-Ptrc-pucL^MM. Format: biochemical, Bacillus subtilis. The following applies: other: cell extract, recombinant EcN::pMCS2-Ptrc-pucL^MM.
Text: as §1, §2, §3, §4

Substrate in data set [4]: O=c1[nH]c(=O)c2[nH]c(=O)[nH]c2[nH]1
The experiment in a line: UA degradation kinetics (Km, Vmax), cell extract of EcN::pMCS2-Ptrc-pucL^T. Format: biochemical, Bacillus subtilis. The conditions noted are these: other: cell extract, recombinant EcN::pMCS2-Ptrc-pucL^T.
Text: as §2, §5
The UriC domain of PucL (PucL^T) catalyzes step 1 in the UA degradation (FIG. 1), and steps 2 and 3 can occur spontaneously. […]
as §4

Setting [5] is: cell extract, recombinant EcN::pMCS2-Ptrc-pucLM.

Take `O=c1[nH]c(=O)c2[nH]c(=O)[nH]c2[nH]1` [UA, uric acid]: in data set [1], the “Km increase of PucL^MM compared to PucLM” value is given as “approximately 2.0 times” and the “Vmax increase of PucL^MM compared to PucLM” value was “approximately 1.8 times”. In data set [2] (setting [5]), the Km (as a rule, the concentration of substrate that gives half-maximal velocity) was 17.2 µM and the maximal velocity (Vmax) (commonly the top rate of the reaction or transport when substrate is in excess) was 13.88 µM/mg/min. Also, in data set [2] (cell extracts), the “Km of PucLM compared with PucL^T” value is recorded as “significantly reduced” and the “Vmax of PucLM compared with PucL^T” value is on record as “similar”.

B1: Bacillus subtilis PucL^MM (PucL variant PucL^M, Asp-214 to Val and Gln-438 to Arg (D44V and Q268R in PucL^T), SEQ ID NO: 1, co-expressed with PucM, SEQ ID NO: … (protein)
chain: MFTMDDLNQMDTQTLTDTLGSIFEHSSWIAERSAALRPFSSLSDLHRKMTGIVKAADRETQLDLIKKHPRLGTKKTMSDDSVREQQNAGLGKLEQQEYEEFLMLNEHYYDRFGFPFILAVKGKTKQDIHQALLARLESERETEFQQALIEIYRIARFRLADIITEKGETQMKRTMSYGKGNVFAYRTYLKPLTGVKQIPESSFAGRDNTVVGVVVTCEIGGEAFLPSFTDGDNTLVVATDSMKNFIQRHLASYEGTTTEGFLHYVAHRFLDTYSHMDTITLTGEDIPFEAMPAYEEKELSTSRLVFRRSRNERSRSVLKAERSGNTITITEQYSEIMDLQLVKVSGNSFVGFIRDEYTTLPEDGNRPLFVYLNISWQYENTNDSYASDPARYVAAEQVRDLASTVFHELETPSIQNLIYHIGCRILARFPQLTDVSFRSQNHTWDTVVEEIPGSKGKVYTEPRPPYGFQHFTVTREDAEKEKQKAAEKCRSLKA
Take B1: in data set [3], the Km is 52.54 µM and the maximum rate (Vmax) is 38.6 µM/min/mg.

B2: Bacillus subtilis PucL^T (UriC domain of PucL, urate oxidase) (Bacillus subtilis subsp. subtilis str. 168) (protein)
chain: MKRTMSYGKGNVFAYRTYLKPLTGVKQIPESSFAGRDNTVVGVDVTCEIGGEAFLPSFTDGDNTLVVATDSMKNFIQRHLASYEGTTTEGFLHYVAHRFLDTYSHMDTITLTGEDIPFEAMPAYEEKELSTSRLVFRRSRNERSRSVLKAERSGNTITITEQYSEIMDLQLVKVSGNSFVGFIRDEYTTLPEDGNRPLFVYLNISWQYENTNDSYASDPARYVAAEQVRDLASTVFHELETPSIQNLIYHIGCRILARFPQLTDVSFQSQNHTWDTVVEEIPGSKGKVYTEPRPPYGFQHFTVTREDAEKEKQKAAEKCRSLKA
B2: in data set [4], the Km stood at 61.03 µM and the Vmax turned out to be 12.3 µM/min/mg.
